Assay results as given in ChEMBL document CHEMBL2202996, “Synthesis, evaluation, and radiolabeling of new potent positive allosteric modulators of the metabotropic glutamate receptor 2 as potential tracers for positron emission tomography imaging” (J Med Chem, 2012).

What was measured:
Liver microsomes [1] = test: Drug metabolism in rat liver microsomes assessed as M+O oxidative metabolite; assay type: ADME, Microsome
[2] = target: T1, Metabotropic glutamate receptor 2 (Homo sapiens, UniProt Q14416); test: Agonist activity at human mGLuR2 expressed in CHO cell membrane assessed as […] after 30 mins by scintillation counting relative to control; assay type: functional, cell membranes
Target sequence in this assay (Q14416 19-872 limits assumed): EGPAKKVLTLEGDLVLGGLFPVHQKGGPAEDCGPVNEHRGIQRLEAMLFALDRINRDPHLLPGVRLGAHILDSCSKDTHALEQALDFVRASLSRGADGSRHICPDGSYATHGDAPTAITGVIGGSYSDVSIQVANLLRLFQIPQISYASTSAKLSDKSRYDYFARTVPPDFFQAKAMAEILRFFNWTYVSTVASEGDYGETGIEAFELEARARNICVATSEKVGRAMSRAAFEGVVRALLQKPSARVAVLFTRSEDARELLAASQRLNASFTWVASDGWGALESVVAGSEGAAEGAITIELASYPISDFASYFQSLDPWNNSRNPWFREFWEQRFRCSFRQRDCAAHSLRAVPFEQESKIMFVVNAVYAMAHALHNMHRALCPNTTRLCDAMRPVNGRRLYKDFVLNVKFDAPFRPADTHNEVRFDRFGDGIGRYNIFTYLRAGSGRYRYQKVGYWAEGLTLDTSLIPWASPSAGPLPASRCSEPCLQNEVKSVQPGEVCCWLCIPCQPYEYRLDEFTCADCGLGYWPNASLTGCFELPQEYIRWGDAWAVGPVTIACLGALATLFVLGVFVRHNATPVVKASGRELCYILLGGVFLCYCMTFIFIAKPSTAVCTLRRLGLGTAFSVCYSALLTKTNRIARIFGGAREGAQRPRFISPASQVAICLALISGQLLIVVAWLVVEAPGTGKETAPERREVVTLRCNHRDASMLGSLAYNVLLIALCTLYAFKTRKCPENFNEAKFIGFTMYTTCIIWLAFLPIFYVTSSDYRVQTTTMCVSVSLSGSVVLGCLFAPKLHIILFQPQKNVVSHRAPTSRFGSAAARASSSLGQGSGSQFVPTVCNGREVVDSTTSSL

Liver microsomes [3] = test: Drug metabolism in rat liver microsomes assessed as O-methylated compound derivative; assay type: ADME, Microsome
Liver microsomes [4] = test: Drug metabolism in human liver microsomes assessed as M+O oxidative metabolite; assay type: ADME, Microsome
[5] = target: T1, Metabotropic glutamate receptor 2; test: Agonist activity at human mGLuR2 expressed in CHO cell membrane assessed as […] after 30 mins by scintillation counting; assay type: functional, cell membranes; settings: read-out: EC50
Target sequence in this assay (Q14416 whole entry): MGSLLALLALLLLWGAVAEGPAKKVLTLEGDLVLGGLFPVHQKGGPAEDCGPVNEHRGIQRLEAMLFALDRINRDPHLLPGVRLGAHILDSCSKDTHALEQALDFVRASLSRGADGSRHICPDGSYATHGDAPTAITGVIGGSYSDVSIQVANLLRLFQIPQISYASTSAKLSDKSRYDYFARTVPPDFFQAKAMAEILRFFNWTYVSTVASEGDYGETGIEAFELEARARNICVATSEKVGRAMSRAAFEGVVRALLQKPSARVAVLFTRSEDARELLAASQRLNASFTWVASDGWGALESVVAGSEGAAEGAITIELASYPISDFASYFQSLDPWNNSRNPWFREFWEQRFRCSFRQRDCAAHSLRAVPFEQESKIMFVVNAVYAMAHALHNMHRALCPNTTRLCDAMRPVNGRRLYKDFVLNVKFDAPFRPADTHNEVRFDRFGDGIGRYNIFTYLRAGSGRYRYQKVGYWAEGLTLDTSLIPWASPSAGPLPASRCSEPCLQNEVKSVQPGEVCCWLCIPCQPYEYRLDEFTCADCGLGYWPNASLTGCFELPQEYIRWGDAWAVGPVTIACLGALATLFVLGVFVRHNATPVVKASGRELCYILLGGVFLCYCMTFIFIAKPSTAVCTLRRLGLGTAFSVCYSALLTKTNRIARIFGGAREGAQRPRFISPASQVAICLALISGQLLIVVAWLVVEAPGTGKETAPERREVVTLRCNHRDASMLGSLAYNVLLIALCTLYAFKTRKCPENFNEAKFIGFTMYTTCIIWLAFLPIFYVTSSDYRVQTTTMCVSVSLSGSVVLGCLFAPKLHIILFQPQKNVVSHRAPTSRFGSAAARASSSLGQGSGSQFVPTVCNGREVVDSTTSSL

[6] = Fraction unbound in human plasma; assay type: ADME, cell-free
Liver microsomes [7] = test: Drug metabolism in human liver microsomes assessed as O-methylated compound derivative; assay type: ADME, Microsome
[8] = Fraction unbound in rat plasma; assay type: ADME, cell-free
Brain [9] = test: Ratio of SUV in total brain in iv dosed Wistar at 2 mins post administration by gamma counting to SUV in total brain in iv dosed Wistar at 30 mins post administration by gamma counting; assay type: ADME, organism-based; settings: rat, in vivo
Hippocampus = test: Ratio of SUV in hippocampus in iv dosed Wistar at 2 mins post administration by gamma counting to SUV in hippocampus in iv dosed Wistar at 30 mins post administration by gamma counting; assay type: ADME, organism-based; settings: rat, in vivo
Rattus norvegicus = test: Biodistribution in Wistar rat urinary system at 22 Mbq, iv measured at 60 mins post administration by gamma counting; assay type: ADME, organism-based, Urine; settings: in vivo, 1 h
Cerebrum [10] = test: Biodistribution in Wistar rat cerebrum at 22 Mbq, iv measured at 2 mins post administration by gamma counting; assay type: ADME, organism-based; settings: in vivo
Striatum = test: Ratio of SUV in striatum in iv dosed Wistar at 2 mins post administration by gamma counting to SUV in striatum in iv dosed Wistar at 30 mins post administration by gamma counting; assay type: ADME, organism-based; settings: rat, in vivo
Liver = test: Biodistribution in Wistar rat liver at 22 Mbq, iv measured at 60 mins post administration by gamma counting; assay type: ADME, organism-based; settings: in vivo, 1 h
Cortex = test: Ratio of SUV in cortex in iv dosed Wistar at 2 mins post administration by gamma counting to SUV in cortex in iv dosed Wistar at 30 mins post administration by gamma counting; assay type: ADME, organism-based; settings: rat, in vivo
[11] = Metabolic stability in Wistar rat cerebellum assessed as intact tracer at 74 MBq, iv measured at 30 mins post administration by gamma counting; assay type: ADME, organism-based; settings: read-out: Stability
[12] = Metabolic stability in Wistar rat plasma assessed as intact tracer at 74 MBq, iv measured at 30 mins post administration by gamma counting; assay type: ADME, organism-based; settings: read-out: Stability
Brain [13] = test: Biodistribution in Wistar rat brain at 22 Mbq, iv measured at 2 mins post administration by gamma counting; assay type: ADME, organism-based; settings: in vivo
Cerebellum [14] = test: Ratio of SUV in cerebellum in iv dosed Wistar at 2 mins post administration by gamma counting to SUV in cerebellum in iv dosed Wistar at 30 mins post administration by gamma counting; assay type: ADME, organism-based; settings: rat, in vivo
Intestine = test: Biodistribution in Wistar rat intestine at 22 Mbq, iv measured at 60 mins post administration by gamma counting; assay type: ADME, organism-based; settings: in vivo, 1 h
Cerebrum [15] = test: Ratio of SUV in cerebrum in iv dosed Wistar at 2 mins post administration by gamma counting to SUV in cerebrum in iv dosed Wistar at 30 mins post administration by gamma counting; assay type: ADME, organism-based; settings: rat, in vivo
Cerebellum [16] = test: Biodistribution in Wistar rat cerebellum at 22 Mbq, iv measured at 2 mins post administration by gamma counting; assay type: ADME, organism-based; settings: in vivo
[17] = Metabolic stability in Wistar rat cerebrum assessed as intact tracer at 74 MBq, iv measured at 30 mins post administration by gamma counting; assay type: ADME, organism-based; settings: read-out: Stability
HEK293 [18] = test: Selectivity ratio for human mGluR3 expressed in HEK293 cells to human mGluR2 expressed in CHO cell membranes; assay type: cell-based
HEK293 [19] = test: Selectivity ratio for human mGluR5 expressed in HEK293 cells to human mGluR2 expressed in CHO cell membranes; assay type: cell-based
HEK293 [20] = test: Selectivity ratio for human mGluR1 expressed in HEK293 cells to human mGluR2 expressed in CHO cell membranes; assay type: cell-based
CHO [21] = test: Selectivity ratio for human mGluR4 to human mGluR2 expressed in CHO cell membranes; assay type: cell-based
HEK293 [22] = test: Selectivity ratio for human mGluR8 expressed in HEK293 cells to human mGluR2 expressed in CHO cell membranes; assay type: cell-based
CHO [23] = test: Selectivity ratio for rat mGluR6 to human mGluR2 expressed in CHO cell membranes; assay type: cell-based
HEK293 [24] = test: Selectivity ratio for human mGluR7 expressed in HEK293 cells to human mGluR2 expressed in CHO cell membranes; assay type: cell-based
[25] = target: T2, Sodium-dependent dopamine transporter (Homo sapiens, UniProt Q01959); test: Binding affinity to DAT
[26] = target: T1, Metabotropic glutamate receptor 2; test: Displacement of [3H]JNJ-40068782 from human mGLuR2 expressed in CHO cell membrane after 60 mins by liquid scintillation counting; assay type: cell membranes
Target sequence in this assay (Q14416 whole entry): as above

D(1A) dopamine receptor [27] = target: T3, D(1A) dopamine receptor (Homo sapiens, UniProt P21728); test: Binding affinity to dopamine D1 receptor
[28] = target: T2, Sodium-dependent dopamine transporter; test: Binding affinity to DAT at 10 uM by CEREP assay
D(1A) dopamine receptor [29] = target: T3, D(1A) dopamine receptor; test: Binding affinity to dopamine D1 receptor at 10 uM by CEREP assay

T3 sequence (P21728 whole entry): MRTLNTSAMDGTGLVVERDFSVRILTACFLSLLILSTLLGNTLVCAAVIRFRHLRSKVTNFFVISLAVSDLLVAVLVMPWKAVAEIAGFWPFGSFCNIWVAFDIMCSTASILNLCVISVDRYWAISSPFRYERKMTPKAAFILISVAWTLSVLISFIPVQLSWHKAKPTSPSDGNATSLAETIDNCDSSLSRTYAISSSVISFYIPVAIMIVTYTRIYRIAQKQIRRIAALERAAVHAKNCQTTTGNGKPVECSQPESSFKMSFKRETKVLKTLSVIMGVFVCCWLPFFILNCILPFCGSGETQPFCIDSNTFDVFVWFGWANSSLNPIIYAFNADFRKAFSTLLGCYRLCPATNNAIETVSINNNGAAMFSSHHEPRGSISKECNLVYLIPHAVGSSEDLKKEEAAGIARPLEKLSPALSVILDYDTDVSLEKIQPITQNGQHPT
T2 sequence (Q01959 whole entry): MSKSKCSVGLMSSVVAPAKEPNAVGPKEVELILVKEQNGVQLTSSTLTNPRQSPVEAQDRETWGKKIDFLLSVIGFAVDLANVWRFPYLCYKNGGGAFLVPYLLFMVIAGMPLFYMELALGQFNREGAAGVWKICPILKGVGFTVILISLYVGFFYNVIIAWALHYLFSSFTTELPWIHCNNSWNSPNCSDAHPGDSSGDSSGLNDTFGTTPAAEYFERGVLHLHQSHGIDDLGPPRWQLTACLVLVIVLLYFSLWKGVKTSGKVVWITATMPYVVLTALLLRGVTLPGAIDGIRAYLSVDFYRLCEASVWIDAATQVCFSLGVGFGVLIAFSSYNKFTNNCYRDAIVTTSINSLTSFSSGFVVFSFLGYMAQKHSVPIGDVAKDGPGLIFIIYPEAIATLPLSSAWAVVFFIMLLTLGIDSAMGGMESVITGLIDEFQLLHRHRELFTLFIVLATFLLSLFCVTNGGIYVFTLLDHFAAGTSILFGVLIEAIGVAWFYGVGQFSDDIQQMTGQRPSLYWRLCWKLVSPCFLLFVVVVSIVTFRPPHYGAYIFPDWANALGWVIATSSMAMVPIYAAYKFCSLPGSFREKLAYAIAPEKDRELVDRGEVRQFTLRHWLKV

Structure (SMILES) | Drug metabolism (Liver microsomes [1]) | Emax [2] | Drug metabolism (Liver microsomes [3]) | Drug metabolism (Liver microsomes [4]) | EC50 [5] | fraction unbound [6] | Drug metabolism (Liver microsomes [7]) | fraction unbound [8] | Ratio (Brain [9]) | Ratio (Hippocampus) | Drug uptake (Cerebrum [10]) | Ratio (Striatum) | Ratio (Cortex) | Drug uptake (Brain [13]) | Ratio (Cerebellum [14]) | Ratio (Cerebrum [15]) | Drug uptake (Cerebellum [16]) | other results
COc1c(F)cccc1C1CCN(c2ccn3c(CC(F)(F)F)nnc3c2C#N)CC1 | Active | 306% | Active | Active | 0.031 µM | 0.047 | Active | 0.04 |  |  |  |  |  |  |  |  |  | 
COc1ccccc1C1CCN(c2ccn3c(CC4CC4)nnc3c2Cl)CC1 | Active | 345% | Active | Active |  | < 0.01 | Active | < 0.01 |  |  |  |  |  |  |  |  |  | 
[11CH3]Oc1ccc(F)c(F)c1C1CCN(c2ccn3c(CC4CC4)nnc3c2Cl)CC1 |  |  |  |  |  |  |  |  | 0.93 | 1.19 | 0.46 %ID | 0.99 | 0.84 | 0.64 %ID | 0.95 | 0.84 | 0.15 %ID | Drug uptake (Rattus norvegicus): Active; Drug uptake (Liver): Active; remaining at 0.5 h [11]: 96.4%; remaining at 0.5 h [12]: 45.5%; Drug uptake (Intestine): Active; remaining at 0.5 h [17]: 93.1%
[11CH3]Oc1ccc(F)cc1C1CCN(c2ccn3c(CC4CC4)nnc3c2Cl)CC1 |  |  |  |  |  |  |  |  | 0.79 | 0.66 | 0.45 %ID | 0.63 | 0.88 | 0.58 %ID | 0.63 | 0.83 | 0.1 %ID | Drug uptake (Rattus norvegicus): Active; Drug uptake (Liver): Active; remaining at 0.5 h [11]: 92.7%; remaining at 0.5 h [12]: 41%; Drug uptake (Intestine): Active; remaining at 0.5 h [17]: 92.4%
COc1ccc(F)cc1C1CCN(c2ccn3c(CC(F)(F)F)nnc3c2Cl)CC1 | Active | 340% | Active | Active |  | < 0.01 | Active | < 0.01 |  |  |  |  |  |  |  |  |  | 

Now from value to compound, other results behind:

Drug metabolism (Liver microsomes [1]) | Emax [2] | Drug metabolism (Liver microsomes [3]) | Drug metabolism (Liver microsomes [4]) | EC50 [5] | fraction unbound [6] | Drug metabolism (Liver microsomes [7]) | fraction unbound [8] | Ratio (Brain [9]) | Ratio (Hippocampus) | Drug uptake (Cerebrum [10]) | Ratio (Striatum) | Ratio (Cortex) | Drug uptake (Brain [13]) | Ratio (Cerebellum [14]) | Ratio (Cerebrum [15]) | Drug uptake (Cerebellum [16]) | Structure (SMILES) | other results
 |  |  |  |  |  |  |  | 1.08 | 1.01 | 0.54 %ID | 0.86 | 1.04 | 0.75 %ID | 0.99 | 0.98 | 0.17 %ID | [11CH3]Oc1c(F)ccc(F)c1C1CCN(c2ccn3c(CC4CC4)nnc3c2C(F)(F)F)CC1 | 
Active | 421% | Active | Active |  | < 0.01 | Active | < 0.01 |  |  |  |  |  |  |  |  |  | COc1c(F)ccc(F)c1C1CCN(c2ccn3c(CC4CC4)nnc3c2C(F)(F)F)CC1 | Selectivity ratio (HEK293 [18]): > 350; Selectivity ratio (HEK293 [19]): > 350; Selectivity ratio (HEK293 [20]): > 350; Selectivity ratio (CHO [21]): > 350; Selectivity ratio (HEK293 [22]): > 350; Selectivity ratio (CHO [23]): > 350; Selectivity ratio (HEK293 [24]): > 350
Active | 282% | Active | Active | 0.0075 µM | < 0.01 | Active | < 0.01 |  |  |  |  |  |  |  |  |  | COc1c(F)ccc(F)c1C1CCN(c2ccn3c(CC4CC4)nnc3c2Cl)CC1 | Selectivity ratio (HEK293 [18]): > 350; Selectivity ratio (HEK293 [19]): > 350; Ki [25]: > 8.5 µM; IC50 [26]: 0.00923 µM; Ki (D(1A) dopamine receptor [27]): ≥ 6.2 µM; Selectivity ratio (HEK293 [20]): > 350; Activity [28]: 52%; Selectivity ratio (CHO [21]): > 350; Selectivity ratio (HEK293 [22]): > 350; Selectivity ratio (CHO [23]): > 350; Selectivity ratio (HEK293 [24]): > 350; Activity (D(1A) dopamine receptor [29]): 76%
Active | 528% | Active | Active | 0.011 µM | < 0.01 | Active | < 0.01 |  |  |  |  |  |  |  |  |  | COc1c(F)cccc1C1CCN(c2ccn3c(CC4CC4)nnc3c2C(F)(F)F)CC1 | 
